# Measured values published in patent US20040053234A1, “Polynucletides that control delta-6 desaturase genes and methods for identifying compounds for modulating delta-6 desaturase” (priority 2000, published 2004).
# Like-named read-outs stand apart in the source and are kept apart here. Marks after values point to notes of the source that are not given here.
# How the values were obtained:
# delta-6-desaturase = format: in vivo, rat; conditions: for D6D activity: hepatic microsomes
# Procedure: As described in other Examples, female Wistar rats were intraperitoneally (i.p.) injected with 50 mg of streptozotocin per kg of body weight. Three days later, animals received a second dose of streptozotocin (25 mg/kg body weight). Two and 7 weeks after the onset of diabetes, non-fasted control and streptozotocin (blood glucose levels 21 to >33 mmoles/L) treated rats were put under light halothane (15% in mineral oil) anaesthesia and sacrificed by exsanguination between 9:00 and 10:00 a.m. Under these experimental conditions, variations in enzyme activity caused by circadian rhythm (Actis Dato et al., 1973, Lipids, 8: 1-6) can be avoided and a substantial (although submaximal) activity of liver desaturase can be obtained (Actis Dato et al., 1973, Lipids, 8: 1-6 and Inkpen et al., 1969, J. Lipid Res., 10: 277-282). Livers were quickly rinsed with cold 0.9% NaCl solution, weighed and minced with scissors. All procedures were performed at 4° C. unless otherwise specified. Microsomes were isolated by differential ultracentrifugation as previously described (de Antueno et al., 1994, Lipids, 29: 327-331). Briefly, livers were homogenized in a solution (1:3 w/v) containing 0.25 M sucrose, 62 mM potassium phosphate buffer (pH 7.0), 0.15 M KCl, 1.5 mM N-acetylcysteine, 5 mM MgCl2, and 0.1 mM EDTA using 4 strokes of a Potter-Elvehjem tissue homogenizer. […] The absence of mitochondrial contamination was enzymatically assessed as previously described (Kilberg M. S. and Christensen H. N., 1979, Biochemistry, 18: 1525-1530). The protein concentration was measured by the method of Lowry et al. with bovine serum albumin as the standard (Lowry et al., 1951, J. Biol. Chem., 193: 265-275).
# (§1) The activities of delta-5 and delta-6 desaturases were determined by measuring the conversion of [1-^14C]20:3n-6 (dihomogamma-linolenic acid) to [1-^14C]20:4n-6 (arachidonic acid) and [1-^14C]18:2n-6 (linoleic acid) to [1-^14C]18:3n-6 (gamma-linolenic acid), respectively. […]
# (§2) Radiolabeled fatty acid methyl esters (FAME) were analyzed as previously described (de Antueno et al., 1993, Lipids, 28: 285-290). […]
# delta-5-desaturase = assay: Hepatic delta-5-desaturase activity in streptozotocin treated rats; format: in vivo, rat; conditions: hepatic microsomes
# Procedure: As described in other Examples, female Wistar rats were intraperitoneally (i.p.) injected with 50 mg of streptozotocin per kg of body weight. Three days later, animals received a second dose of streptozotocin (25 mg/kg body weight). Two and 7 weeks after the onset of diabetes, non-fasted control and streptozotocin (blood glucose levels 21 to >33 mmoles/L) treated rats were put under light halothane (15% in mineral oil) anaesthesia and sacrificed by exsanguination between 9:00 and 10:00 a.m. […] The absence of mitochondrial contamination was enzymatically assessed as previously described (Kilberg M. S. and Christensen H. N., 1979, Biochemistry, 18: 1525-1530). The protein concentration was measured by the method of Lowry et al. with bovine serum albumin as the standard (Lowry et al., 1951, J. Biol. Chem., 193: 265-275).
# as §1, §2
# [1] = Plasma phospholipid arachidonic acid content in streptozotocin-induced diabetic rats; format: in vivo, rat
# Procedure: Eighteen rats were injected with 75 mg STZ/kg bd wt to induce the diabetic state. After 4 days the blood glucose level in each of the STZ rats was checked. The blood sample was obtained from the tail vein. […] The diabetic rats were housed 2 per cage. After 2 weeks, approximately one half of the diabetic rats and control rats were sacrificed. After 7 weeks, the remaining diabetic and control rats were sacrificed. By sacrificing controls at the same time we eliminated any possible age effect when completing our data analysis. The rats were sacrificed by exsanguination and tissues were removed for fatty acid analyses. […]
# The different lipid classes from the RBCs (phospholipids), plasma and liver (phospholipids, free fatty acids, triglycerides and cholesterol esters) were separated using neutral lipid thin-layer chromatography. […] Compounds were detected by spraying the plates with 2,7-dichlorofluorescein and the silica gel containing each of the lipid class bands was scraped from the plate and placed in screw cap test tubes.
# Four ml of BF3-methanol was added to the scraped silica gel fractions or the dry cholesterol ester fraction and heated for 30 min at 90° C. […] The fatty acid methyl esters (FAME) were dissolved in HPLC grade hexane and analyzed by gas chromatography. […]
# hD6D-1 control region = assay: Luciferase activity of HepG2 clones stably transfected with hD6D-1 control region-luciferase construct pGh4015.1; format: cell-based, human
# Procedure: Stable transfection was performed using the HepG2 cell line, which was adapted to grow in tissue culture dishes treated with 0.1% gelatin. The day before transfection, the cells were plated into 60 mm tissue culture dishes, so that they were 85-95% confluent on the day of transfection. For each dish of cells to be transfected, 10 μg of plasmid DNA (pGh4015.1) along with 1 μg of the vector pRSV-NEO (ATCC# 37198), was diluted in 500 μl of Opti-MEM (GIBCO-BRL) without serum. For each dish of cells to be transfected, 10 μl of Lipofectamine 2000 reagent (GIBCO BRL) was diluted in 500 μl of Opti-MEM, and incubated at room temperature for 5 min. The diluted DNA was mixed with the diluted lipofectamine and incubated at room temperature for 20 min. The DNA-lipofectamine complexes (1 ml) were put directly into each dish of cells to be transfected and mixed gently by rocking the dish back and forth The cells were incubated at 37° C. in a CO2 incubator for 24 h Each transfected dish of cells was then passaged into two 150 mm tissue culture dishes. The following day, geneticin (GIBCO BRL) was added to the culture medium at a concentration of 800 μg/ml. The cells were kept in selection for 4 weeks. Clones were transferred into a 96-well plate (one clone per well) until they reached confluence. Subsequently, the clones were transferred to a 24-well plate before been tested for luciferase activity.
# The luciferase assays were done using the Luciferase Assay System from Promega (Promega, Wis.). Briefly, the cells grown in a 24well plate, were washed with PBS (Ca^2+ and Mg^2+ free) and lysed with about 100 μl of 1× CCLR (Cell Culture Lysis Reagent, Promega). Twenty μl of cell lysate was dispensed into a luminometer tube. The tube was placed in the luminometer (Berthold #9707, Monolight 3010, PharMingen, San Diego, Calif.) and 100 μl of Luciferase Assay Reagent (Promega) was injected into the tube. The luminometer was programmed to perform a 3-second measurement delay followed by a 15-second measurement read for luciferase activity. The results were expressed in Relative Light Unit per 15 seconds (RLU/15s).
# The HepG2 stable clone 19 and 72, were plated in a 24-well plate (one plate per clone) treated with 0.1% gelatin, containing α-MEM supplemented with 10% FBS (Fetal Bovine Serum) and 200 μg/ml of geneticin (all from GIBCO BRL). When the cells reached about 80% confluence, the culture medium was replace with Williams' medium E (GIBCO) containing insulin (1 μM), dexamethasone (1 nM) and 0.27% BSA (Bovine Serum Albumin) all from Sigma. Six wells for each plate were treated with DHA at a concentration of 0, 25, 50 and 100 μM. After an incubation time of 6, 24 and 48 h, the wells were washed with PBS and the cells lysed with 100 μl of 1× CCLR (Promega). The luciferase assays were performed using a single tube luminometer using the Luciferase Assay System from Promega as indicated above.
structure (smiles),measurement,setting,value
"CN(N=O)C(=O)N[C@H]1C(O)O[C@H](CO)[C@@H](O)[C@@H]1O (stereo partly drawn) [STZ, 2-deoxy-2-[([methylnitroso-amino]carbonyl)amino]-D-glucopyranose]",D6D activity,delta-6-desaturase; 2 weeks after STZ treatment,125.4 ± 34^a pmol/mg microsomal protein/min
same,D6D activity,delta-6-desaturase; 7 weeks after STZ treatment,102.8 ± 29^c pmol/mg microsomal protein/min
same,Reduction of delta-6-desaturase activity in hepatic microsomes compared to control rats,delta-6-desaturase; streptozotocin diabetic rats,37%
same,D5D activity,delta-5-desaturase; 2 weeks after STZ treatment,195.6 ± 56^b pmol/mg microsomal protein/min
same,D5D activity,delta-5-desaturase; 7 weeks after STZ treatment,129.7 ± 30^d pmol/mg microsomal protein/min
same,Reduction of plasma phospholipid AA content,[1]; 2 week streptozotocin-induced diabetic rats,31%
same,Reduction of plasma phospholipid AA content,[1]; 7 week streptozotocin-induced diabetic rats,27%
"CC/C=C\C/C=C\C/C=C\C/C=C\C/C=C\C/C=C\CCC(=O)O [DHA, docosahexaenoic acid]",Luciferase activity,"hD6D-1 control region; HepG2 clone 19, DHA 25 μM, 6 h",3.91E+06 RLU/15 s
same,Luciferase activity,"hD6D-1 control region; HepG2 clone 19, DHA 25 μM, 24 h",8.33E+06 RLU/15 s
same,Luciferase activity,"hD6D-1 control region; HepG2 clone 19, DHA 25 μM, 48 h",1.35E+07 RLU/15 s
same,Luciferase activity,"hD6D-1 control region; HepG2 clone 19, DHA 50 μM, 6 h",3.96E+06 RLU/15 s
same,Luciferase activity,"hD6D-1 control region; HepG2 clone 19, DHA 50 μM, 24 h",6.32E+06 RLU/15 s
same,Luciferase activity,"hD6D-1 control region; HepG2 clone 19, DHA 50 μM, 48 h",8.73E+06 RLU/15 s
same,Luciferase activity,"hD6D-1 control region; HepG2 clone 19, DHA 100 μM, 6 h",2.11E+06 RLU/15 s
same,Luciferase activity,"hD6D-1 control region; HepG2 clone 19, DHA 100 μM, 24 h",3.87E+06 RLU/15 s
same,Luciferase activity,"hD6D-1 control region; HepG2 clone 19, DHA 100 μM, 48 h",4.16E+06 RLU/15 s
same,Luciferase activity,"hD6D-1 control region; HepG2 clone 72, DHA 25 μM, 6 h",8.27E+05 RLU/15 s
same,Luciferase activity,"hD6D-1 control region; HepG2 clone 72, DHA 25 μM, 24 h",2.66E+06 RLU/15 s
same,Luciferase activity,"hD6D-1 control region; HepG2 clone 72, DHA 25 μM, 48 h",3.68E+06 RLU/15 s
same,Luciferase activity,"hD6D-1 control region; HepG2 clone 72, DHA 50 μM, 6 h",6.69E+05 RLU/15 s
same,Luciferase activity,"hD6D-1 control region; HepG2 clone 72, DHA 50 μM, 24 h",1.43E+06 RLU/15 s
same,Luciferase activity,"hD6D-1 control region; HepG2 clone 72, DHA 50 μM, 48 h",2.18E+06 RLU/15 s
same,Luciferase activity,"hD6D-1 control region; HepG2 clone 72, DHA 100 μM, 6 h",3.07E+05 RLU/15 s
same,Luciferase activity,"hD6D-1 control region; HepG2 clone 72, DHA 100 μM, 24 h",8.55E+05 RLU/15 s
same,Luciferase activity,"hD6D-1 control region; HepG2 clone 72, DHA 100 μM, 48 h",9.80E+05 RLU/15 s
